Results on two compounds are retold here after paper PMC11249953, “c-KIT inhibitors reduce pathology and improve behavior in the Tg(SwDI) model of Alzheimer’s disease” (Life Science Alliance, 2024).

The target in assay [1] is T1, MEK5 (Homo sapiens, UniProt Q13163).
T1 construct: DNA label for qPCR read-out (T7 phage fusion or DNA tag); purchased Eurofins DiscoverX Corporation; host or cells: T7 phage in E. coli (BL21-derived) or HEK-293
T1 sequence (Q13163 1-448): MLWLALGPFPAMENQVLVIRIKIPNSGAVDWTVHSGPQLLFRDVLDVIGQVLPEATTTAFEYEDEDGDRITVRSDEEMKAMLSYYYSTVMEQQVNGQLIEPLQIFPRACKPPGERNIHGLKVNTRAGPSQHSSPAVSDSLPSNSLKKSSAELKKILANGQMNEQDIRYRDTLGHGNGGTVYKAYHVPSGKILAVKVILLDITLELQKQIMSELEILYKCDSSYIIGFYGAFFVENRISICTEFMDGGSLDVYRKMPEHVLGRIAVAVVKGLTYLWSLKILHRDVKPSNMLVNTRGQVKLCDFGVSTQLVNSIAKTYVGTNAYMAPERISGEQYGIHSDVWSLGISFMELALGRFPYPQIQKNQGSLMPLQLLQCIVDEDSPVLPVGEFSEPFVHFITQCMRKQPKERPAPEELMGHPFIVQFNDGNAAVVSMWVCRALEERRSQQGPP
Nature of the assay: KINOMEscan competition binding, MEK5. To be noted: 10 µM compound; for remaining binding at 10 µM: lower = stronger binding, read-out: MEK5 %Ctrl @ 10000nM (POC). How it is done:
(§1) The KINOMEscan screening platform (Eurofins DiscoverX Corporation) was performed using active site-directed competition binding assay to quantitatively measure interactions between BK40143 and BK40197 and more than 450 human kinases and disease relevant mutant variants. […] Screening “hits” are identified by measuring the amount of kinase captured in test (BK40143 and BK40197) versus control samples by using a quantitative and ultra-sensitive qRT-PCR method that detects the associated DNA label. BK40143 and BK40197 were screened at 10 µM concentration, and results for primary screen binding interactions were reported as “% Ctrl” (POC), where lower numbers indicate stronger hits and calculated as follows: [test compound signal−positive control signal/negative control signal−positive control signal]×100
(§2) negative control = DMSO (100% Ctrl)
(§3) positive control = control compound (0% Ctrl)
(§4) Based on screening data from of profiled compounds, a proportional relationship between primary screening results and corresponding compound/target affinities can be described as binding constants (Kd values) for the indicated ranges of POC values with tighter binding (higher affinity) interactions associated with lower POC values and weaker binding (lower affinity) associated with higher POC values. Briefly, kinase-tagged T7 phage strains were grown in parallel in 24-well blocks in an E. coli host derived from the BL21 strain. E. coli were grown to log-phase and infected with T7 phage from a frozen stock (multiplicity of infection = 0.4) and incubated with shaking at 32°C until lysis (90–150 min). The lysates were centrifuged (6,000g) and filtered (0.2 μm) to remove cell debris. The remaining kinases were produced in HEK-293 cells and subsequently tagged with DNA for qRT-PCR detection. Streptavidin-coated magnetic beads were treated with biotinylated small molecule ligands for 30 min at RT to generate affinity resins for kinase assays. The liganded beads were blocked with excess biotin and washed with blocking buffer (1% BSA, 0.05% Tween 20, 1 mM DTT; SeaBlock [Pierce]) to remove unbound ligand and to reduce non-specific phage binding. Binding reactions were assembled by combining kinases, liganded affinity beads, and test compounds in 1x binding buffer (20% 0.17x PBS, 0.05% Tween 20, 6 mM DTT; SeaBlock). Test compounds were prepared as 100x stocks in 100% DMSO and directly diluted into the assay. All reactions were performed in polypropylene 384-well plates in a final volume of 0.02 ml. The assay plates were incubated at RT with shaking for 1 h and the affinity beads were washed with wash buffer (1x PBS, 0.05% Tween 20). […] The kinase concentration in the eluates was measured by qRT-PCR.

The target in assay [2] is T2, SYK (Homo sapiens, UniProt P43405).
T2 construct: DNA label for qPCR read-out (T7 phage fusion or DNA tag); purchased Eurofins DiscoverX Corporation; host or cells: T7 phage in E. coli (BL21-derived) or HEK-293
Nature of the assay: KINOMEscan competition binding, SYK. To be noted: 10 µM compound; for remaining binding at 10 µM: lower = stronger binding, read-out: SYK %Ctrl @ 10000nM (POC). Here is the method: as §1, §2, §3, §4

In assay [3] the target is T3, IRAK1 (Homo sapiens, UniProt P51617).
T3 construct: DNA label for qPCR read-out (T7 phage fusion or DNA tag); purchased Eurofins DiscoverX Corporation; host or cells: T7 phage in E. coli (BL21-derived) or HEK-293
Nature of the assay: KINOMEscan competition binding, IRAK1. As to conditions: 10 µM compound; for remaining binding at 10 µM: lower = stronger binding, read-out: IRAK1 %Ctrl @ 10000nM (POC). How it is done:
as §1, §2, §3, §4

The test system of assay [4] is beclin-1 in TgAPP mice. Nature of the assay: Western blot for beclin-1 in brain. Type of assay: in vivo, mouse. To be noted: BK40143 5 mg/kg, BK40197 45 mg/kg, vs DMSO. How it is done:
Brain hemispheres from treated and untreated animals were lysed in 1x STEN buffer and protein concentrations were measured via BCA assay. Samples were normalized to 1 μg/μl and added to 2x Laemmli loading buffer + β-mercaptoethanol and boiled for 10 min to denature the protein. 15 μg of sample were then loaded in 4–12% Bis–Tris gels with MES buffer and electrophoresed, before transfer to a nitrocellulose membrane, where they were blocked with 5% dry milk in 1x TBST and incubated overnight with an anti-Beclin-1 primary antibody (cat. #3739S; Cell Signaling) or a phospho-c-KIT antibody (cat. #44-496G; Invitrogen). The next day, the membrane was washed and treated for 1 h with a goat anti-rabbit HRP-linked secondary followed by SuperSignal West Dura Extended Duration Substrate (cat. #37071; Thermo Fisher Scientific) and imaged on an Amersham Imager 600. This procedure was repeated the next day with an anti-mouse actin primary as a loading control.
(In general: A western blot detects proteins with antibodies after separation by electrophoresis.)

The subject of assay [5] is microglial PAR2-tryptase interactions in TgAPP mice. Nature of the assay: Proximity ligation assay PAR2-tryptase. Type of assay: in vivo, mouse. As to conditions: vs DMSO. Here is the method: Slides containing two consecutive brain slices were blocked in Duolink blocking solution for 1 h in a slide chamber containing water at 37°C. Blocking solution was then removed and PAR2 (1:250) and tryptase (1:250) primary antibodies were added at the concentrations specified above and incubated at 4°C overnight. The next day, primaries were removed and slides were washed twice for 5 min in wash buffer before addition of plus and minus probes for incubation at 37°C in a humid chamber for 1 h. Slides were then washed again twice for 5 min in wash buffer before addition of ligation buffer for incubation at 37°C in a humid chamber for 30 min. Next, slides were washed twice for 5 min in wash buffer, and polymerase was added for incubation at 37°C in a humid chamber for 100 min. Finally, slides were washed twice for 10 min in wash buffer and mounted using DAPI mounting medium and a glass coverslip. Slides were imaged on a Leica Dmi8 light microscope.

T3 sequence (P51617 whole entry, the tested form may be a part): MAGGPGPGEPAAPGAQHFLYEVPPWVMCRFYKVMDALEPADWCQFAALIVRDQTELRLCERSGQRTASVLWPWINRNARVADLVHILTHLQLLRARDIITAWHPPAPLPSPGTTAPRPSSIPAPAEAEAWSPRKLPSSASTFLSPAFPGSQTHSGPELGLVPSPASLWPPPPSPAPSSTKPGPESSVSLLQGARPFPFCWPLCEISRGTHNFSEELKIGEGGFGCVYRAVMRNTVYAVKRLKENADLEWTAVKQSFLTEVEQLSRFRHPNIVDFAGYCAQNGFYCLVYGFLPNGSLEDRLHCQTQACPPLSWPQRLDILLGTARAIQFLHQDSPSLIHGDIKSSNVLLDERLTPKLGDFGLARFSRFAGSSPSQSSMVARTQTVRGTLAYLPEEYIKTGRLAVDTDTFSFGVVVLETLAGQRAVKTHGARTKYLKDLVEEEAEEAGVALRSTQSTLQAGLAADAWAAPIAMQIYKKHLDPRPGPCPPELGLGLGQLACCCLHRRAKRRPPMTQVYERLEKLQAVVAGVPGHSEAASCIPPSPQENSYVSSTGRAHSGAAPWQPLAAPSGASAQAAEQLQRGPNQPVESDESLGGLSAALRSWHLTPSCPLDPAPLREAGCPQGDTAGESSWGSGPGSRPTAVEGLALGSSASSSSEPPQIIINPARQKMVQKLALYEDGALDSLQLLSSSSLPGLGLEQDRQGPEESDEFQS

The term inhibition denotes how much of the control response was suppressed. For `Cc1cccc(-c2cc3nccc(Nc4ccccc4)c3s2)c1` [BK40143], the results for the inhibition at 10 µM in assay [1], in assay [2] and in assay [3] were 99.7%, 94.5% and 54%, respectively. Besides, the values for the remaining binding at 10 µM in assay [1], in assay [2] and in assay [3] were 0.35%, 5.5% and 46%, respectively. In addition, the “beclin-1 levels in brain (Western blot)” value in assay [4] is reported as “significant increases in levels of beclin-1”. Also, the “mast cell tryptase / microglial PAR2-tryptase interactions (proximity ligation)” value in assay [5] is “reduced mast cell mediators such as tryptase”.

`Cc1cccc(-c2cc3nccc(N4CCOCC4)c3s2)c1` [BK40197]: the results for the inhibition at 10 µM in assay [1], in assay [2] and in assay [3] were 93.1%, 56% and 94.7%, respectively. The results for the remaining binding at 10 µM in assay [1], in assay [2] and in assay [3] were 6.9%, 44% and 5.3%, respectively. Also, the “beclin-1 levels in brain (Western blot)” value in assay [4] is “significant increases in levels of beclin-1”. Also, the “mast cell tryptase / microglial PAR2-tryptase interactions (proximity ligation)” value in assay [5] is “reduced mast cell mediators such as tryptase”.
